The test deals with human PDE10A2 (Homo sapiens (Human), UniProt Q9Y233). Nature of the test: PDE10 fluorescence polarization (IMAP FP) inhibition assay. Format: biochemical. Conditions: human PDE10A2 from transfected AD293 cells; FAM-labeled cAMP 50 nM; apparent inhibition constant; read-out: PDE10A Ki. In outline:
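Cytoplasmic lysate of AD293 cells transiently expressing human PDE10A2 (enzyme level giving 20% conversion) incubated with 50 nM FAM-cAMP in pH 7.2 Tris/MgCl2 buffer, 30 min at room temperature. IMAP binding solution added, FP read after ≥1 h; 10-point 3-fold compound titrations fitted to a four-parameter equation.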
Chain of human PDE10A2 (Q9Y233 267-1055): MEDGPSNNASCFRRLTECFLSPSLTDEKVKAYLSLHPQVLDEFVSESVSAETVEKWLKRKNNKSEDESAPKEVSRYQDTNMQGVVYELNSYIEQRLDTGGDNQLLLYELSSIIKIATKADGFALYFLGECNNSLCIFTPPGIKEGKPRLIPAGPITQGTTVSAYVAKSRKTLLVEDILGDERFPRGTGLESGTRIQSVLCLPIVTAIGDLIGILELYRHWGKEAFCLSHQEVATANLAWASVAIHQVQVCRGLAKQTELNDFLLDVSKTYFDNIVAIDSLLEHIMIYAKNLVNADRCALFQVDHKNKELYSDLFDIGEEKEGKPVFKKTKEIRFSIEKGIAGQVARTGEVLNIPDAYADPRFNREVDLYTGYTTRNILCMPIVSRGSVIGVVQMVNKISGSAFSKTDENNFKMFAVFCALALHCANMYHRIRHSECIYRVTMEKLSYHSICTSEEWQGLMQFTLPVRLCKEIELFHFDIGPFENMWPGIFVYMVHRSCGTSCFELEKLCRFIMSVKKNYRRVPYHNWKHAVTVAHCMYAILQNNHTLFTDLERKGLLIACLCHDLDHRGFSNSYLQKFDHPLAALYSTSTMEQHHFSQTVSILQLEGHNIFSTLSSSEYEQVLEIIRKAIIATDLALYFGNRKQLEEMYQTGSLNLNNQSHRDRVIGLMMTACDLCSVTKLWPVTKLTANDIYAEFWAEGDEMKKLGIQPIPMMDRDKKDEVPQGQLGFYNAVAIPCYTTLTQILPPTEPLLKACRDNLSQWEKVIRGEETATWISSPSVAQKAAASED
As for `CCn1nnc(-c2ccc(-c3cnc(C)nc3OC[C@H]3C[C@@H]3c3ccc(OC)cn3)cn2)n1` [Example 232, 5-(6-(2-ethyl-2H-tetrazol-5-yl)pyridin-3-yl)-4-(((1S,2S)-2-(5-methoxypyridin-2-yl)cyclopropyl)methoxy)-2-methylpyrimidine], the Ki was determined as 0.77 nM.

As for `CCn1nnnc1-c1ccc(-c2cnc(C)nc2OC[C@H]2C[C@@H]2c2ccc(OC)cn2)cn1` [Example 233, 5-(6-(1-ethyl-1H-tetrazol-5-yl)pyridin-3-yl)-4-(((1S,2S)-2-(5-methoxypyridin-2-yl)cyclopropyl)methoxy)-2-methylpyrimidine], the Ki was found to be 1.16 nM.

With `COc1ccc([C@H]2C[C@@H]2COc2nc(C)ncc2-c2nn[nH]n2)nc1` [Example 234, 4-(((1S,2S)-2-(5-methoxypyridin-2-yl)cyclopropyl)methoxy)-2-methyl-5-(2H-tetrazol-5-yl)pyrimidine], the Ki was 9.43 nM.

On to `COc1ccc([C@H]2C[C@@H]2COc2nc(C)ncc2-c2nnn(C)n2)nc1` [Example 235, 4-(((1S,2S)-2-(5-methoxypyridin-2-yl)cyclopropyl)methoxy)-2-methyl-5-(2-methyl-2H-tetrazol-5-yl)pyrimidine], for which the Ki was 21.5 nM.

In the case of `CCn1nnc(-c2cnc(C)nc2OC[C@H]2C[C@@H]2c2ccc(OC)cn2)n1` [Example 236, 5-(2-ethyl-2H-tetrazol-5-yl)-4-(((1S,2S)-2-(5-methoxypyridin-2-yl)cyclopropyl)methoxy)-2-methylpyrimidine], the Ki came to 19.4 nM.

As for `COc1ccc([C@H]2C[C@@H]2COc2nc(C)ncc2-c2nnn(C(F)F)n2)nc1` [Example 237, 5-(2-(difluoromethyl)-2H-tetrazol-5-yl)-4-(((1S,2S)-2-(5-methoxypyridin-2-yl)cyclopropyl)methoxy)-2-methylpyrimidine], the Ki amounted to 32.9 nM.

With `COc1ccc([C@H]2C[C@@H]2COc2nc(C)ncc2-c2cc(=O)[nH]n2C)nc1` [Example 238, 5-(4-(((1S,2S)-2-(5-methoxypyridin-2-yl)cyclopropyl)methoxy)-2-methylpyrimidin-5-yl)-1-methyl-1,2-dihydropyrazol-3-one], the Ki turned out to be 22.9 nM.

Turning to `COc1ccc([C@H]2C[C@@H]2COc2nc(C)ncc2-c2cc(=O)n(C)n2C)nc1` [Example 239, 5-(4-(((1S,2S)-2-(5-methoxypyridin-2-yl)cyclopropyl)methoxy)-2-methylpyrimidin-5-yl)-1,2-dimethyl-1,2-dihydropyrazol-3-one], the Ki was found to be 7.7 nM.

Regarding `COc1ccc([C@H]2C[C@@H]2COc2nc(C)ncc2-c2cc(OC)nn2C)nc1` [Example 240, 5-(3-methoxy-1-methyl-1H-pyrazol-5-yl)-4-(((1S,2S)-2-(5-methoxypyridin-2-yl)cyclopropyl)methoxy)-2-methylpyrimidine], the Ki came to 29.9 nM.

On to `COc1ccc([C@H]2C[C@@H]2COc2nc(C)ncc2-c2cc(=O)[nH][nH]2)nc1` [Example 241, 5-(4-(((1S,2S)-2-(5-methoxypyridin-2-yl)cyclopropyl)methoxy)-2-methylpyrimidin-5-yl)-1,2-dihydropyrazol-3-one], for which the Ki was determined as 0.9 nM.

Take `COc1ccc([C@H]2C[C@@H]2COc2nc(C)ncc2-c2c[nH]oc2=O)nc1` [Example 242, 4-(4-(((1S,2S)-2-(5-methoxypyridin-2-yl)cyclopropyl)methoxy)-2-methylpyrimidin-5-yl)isoxazol-5(2H)-one]: the Ki was 2.36 nM.

Turning to `COc1ccc([C@H]2C[C@@H]2COc2nc(C)ncc2-c2cn(C)oc2=O)nc1` [Example 243, 4-(4-(((1S,2S)-2-(5-methoxypyridin-2-yl)cyclopropyl)methoxy)-2-methylpyrimidin-5-yl)-2-methylisoxazol-5(2H)-one], the Ki turned out to be 6.59 nM.

Turning to `COc1ccc([C@H]2C[C@@H]2COc2nc(C)ncc2-c2cn(C)[nH]c2=O)nc1` [Example 244, 4-(4-(((1S,2S)-2-(5-methoxypyridin-2-yl)cyclopropyl)methoxy)-2-methylpyrimidin-5-yl)-1-methyl-1,2-dihydropyrazol-3-one], the Ki stood at 0.71 nM.

Take `COc1ccc([C@H]2C[C@@H]2COc2nc(C)ncc2-c2c[nH]nn2)nc1` [Example 245, 4-(((1S,2S)-2-(5-methoxypyridin-2-yl)cyclopropyl)methoxy)-2-methyl-5-(1H-1,2,3-triazol-4-yl)pyrimidine]: the Ki stood at 1.36 nM.

Regarding `COc1ccc([C@H]2C[C@@H]2COc2nc(C)ncc2-c2cnnn2C(F)F)nc1` [Example 246, 5-(3-(difluoromethyl)-3H-1,2,3-triazol-4-yl)-4-(((1S,2S)-2-(5-methoxypyridin-2-yl)cyclopropyl)methoxy)-2-methylpyrimidine], the Ki was determined as 6.6 nM.

In the case of `CCn1cc(-c2cnc(C)nc2OC[C@H]2C[C@@H]2c2ccc(OC)cn2)nn1` [Example 247, 5-(1-ethyl-1H-1,2,3-triazol-4-yl)-4-(((1S,2S)-2-(5-methoxypyridin-2-yl)cyclopropyl)methoxy)-2-methylpyrimidine], the Ki worked out at 2.43 nM.

As for `CCOC(=O)c1[nH]nnc1-c1cnc(C)nc1OC[C@H]1C[C@@H]1c1ccc(OC)cn1` [Example 248, ethyl 4-(4-(((1S,2S)-2-(5-methoxypyridin-2-yl)cyclopropyl)methoxy)-2-methylpyrimidin-5-yl)-1H-1,2,3-triazole-5-carboxylate], the Ki is 14 nM.

As to `COc1ccc([C@H]2C[C@@H]2COc2nc(C)ncc2-c2nn[nH]c2CO)nc1` [Example 249, (4-(4-(((1S,2S)-2-(5-methoxypyridin-2-yl)cyclopropyl)methoxy)-2-methylpyrimidin-5-yl)-1H-1,2,3-triazol-5-yl)methanol], the Ki worked out at 15.7 nM.

As for `COc1ccc([C@H]2C[C@@H]2COc2nc(C)ncc2-c2ccc(-c3ncon3)cc2)nc1` [Example 250, 3-(4-(4-(((1S,2S)-2-(5-methoxypyridin-2-yl)cyclopropyl)methoxy)-2-methylpyrimidin-5-yl)phenyl)-1,2,4-oxadiazole], the Ki was 1.16 nM.

As to `COc1ccc([C@H]2C[C@@H]2COc2nc(C)ncc2-c2ccc(-c3noc(C)n3)cc2)nc1` [Example 251, 3-(4-(4-(((1S,2S)-2-(5-methoxypyridin-2-yl)cyclopropyl)methoxy)-2-methylpyrimidin-5-yl)phenyl)-5-methyl-1,2,4-oxadiazole], the Ki is 1.97 nM.

Take `COc1ccc([C@H]2C[C@@H]2COc2nc(C)ncc2-c2ccc(-c3noc(CO)n3)cc2)nc1` [Example 252, (3-(4-(4-(((1S,2S)-2-(5-methoxypyridin-2-yl)cyclopropyl)methoxy)-2-methylpyrimidin-5-yl)phenyl)-1,2,4-oxadiazol-5-yl)methanol]: the Ki came out at 2.03 nM.

In the case of `COc1ccc([C@H]2C[C@@H]2COc2nc(C)ncc2-c2ccc(-c3nc(C)no3)cc2)nc1` [Example 253, 5-(4-(4-(((1S,2S)-2-(5-methoxypyridin-2-yl)cyclopropyl)methoxy)-2-methylpyrimidin-5-yl)phenyl)-3-methyl-1,2,4-oxadiazole], the Ki came out at 3.02 nM.

For `COc1ccc([C@H]2C[C@@H]2COc2nc(C)ncc2-c2ncno2)nc1` [Example 254, 5-(4-(((1S,2S)-2-(5-methoxypyridin-2-yl)cyclopropyl)methoxy)-2-methylpyrimidin-5-yl)-1,2,4-oxadiazole], the Ki came out at 22.9 nM.

For the compound `COc1ccc([C@H]2C[C@@H]2COc2nc(C)ncc2-c2cnco2)nc1` [Example 255, 5-(4-(((1S,2S)-2-(5-methoxypyridin-2-yl)cyclopropyl)methoxy)-2-methylpyrimidin-5-yl)oxazole], the Ki came out at 7.7 nM.

With `COc1ccc([C@H]2C[C@@H]2COc2nc(C)ncc2-c2noc(CO)n2)nc1` [Example 256, (3-(4-(((1S,2S)-2-(5-methoxypyridin-2-yl)cyclopropyl)methoxy)-2-methylpyrimidin-5-yl)-1,2,4-oxadiazol-5-yl)methanol], the Ki was 29.9 nM.

Turning to `COc1ccc([C@H]2C[C@@H]2COc2nc(C)ncc2-c2ocnc2C)nc1` [Example 257, 5-(4-(((1S,2S)-2-(5-methoxypyridin-2-yl)cyclopropyl)methoxy)-2-methylpyrimidin-5-yl)-4-methyloxazole], the Ki was determined as 0.91 nM.

Values taken from patent publication US9663513B2, “Pyrimidine PDE10 inhibitors” (Merck Sharp & Dohme Corp., priority 2012, dated 2017).
